Results: ChEMBL document CHEMBL1149268, “Structure-based design of potent and selective cell-permeable inhibitors of human beta-secretase (BACE-1)” (J Med Chem, 2004)
pIC50: −log10 of the molar value. The source made the active and inactive calls. The rule behind the calls is not given here.

Tests used:
Beta-secretase 2 = target: T1, Beta-secretase 2 (Homo sapiens, UniProt Q9Y5Z0); test: (§1) Inhibition of BACE2
T1 sequence (Q9Y5Z0 whole entry): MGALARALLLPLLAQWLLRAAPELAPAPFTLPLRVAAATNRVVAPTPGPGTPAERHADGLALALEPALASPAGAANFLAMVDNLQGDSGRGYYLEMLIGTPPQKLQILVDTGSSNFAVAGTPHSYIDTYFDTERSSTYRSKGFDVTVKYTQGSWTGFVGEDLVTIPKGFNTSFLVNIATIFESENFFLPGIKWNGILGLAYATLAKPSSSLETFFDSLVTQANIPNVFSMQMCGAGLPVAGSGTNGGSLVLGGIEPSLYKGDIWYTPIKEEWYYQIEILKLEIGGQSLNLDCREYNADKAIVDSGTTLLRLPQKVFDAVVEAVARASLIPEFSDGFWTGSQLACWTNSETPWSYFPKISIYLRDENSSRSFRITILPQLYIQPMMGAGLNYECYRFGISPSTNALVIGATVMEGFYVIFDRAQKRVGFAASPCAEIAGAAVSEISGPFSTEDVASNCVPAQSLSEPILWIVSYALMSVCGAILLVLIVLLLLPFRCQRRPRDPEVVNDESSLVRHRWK

Renin = target: T2, Renin (Homo sapiens, UniProt P00797); test: Inhibition of renin
T2 sequence (P00797 whole entry): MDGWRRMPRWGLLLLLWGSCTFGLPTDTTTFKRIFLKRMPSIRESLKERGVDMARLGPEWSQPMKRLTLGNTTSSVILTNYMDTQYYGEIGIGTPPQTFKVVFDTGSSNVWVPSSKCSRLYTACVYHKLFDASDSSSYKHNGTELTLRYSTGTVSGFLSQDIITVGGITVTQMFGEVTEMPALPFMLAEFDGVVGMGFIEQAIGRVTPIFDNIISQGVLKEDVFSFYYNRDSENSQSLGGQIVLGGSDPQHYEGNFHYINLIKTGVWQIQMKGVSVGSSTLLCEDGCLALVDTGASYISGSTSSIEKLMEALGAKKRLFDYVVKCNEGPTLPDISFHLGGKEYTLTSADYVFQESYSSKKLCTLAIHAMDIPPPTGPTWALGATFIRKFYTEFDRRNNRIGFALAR

Beta-secretase 1 [1] = target: T3, Beta-secretase 1 (Homo sapiens, UniProt P56817)
T3 sequence (P56817 whole entry): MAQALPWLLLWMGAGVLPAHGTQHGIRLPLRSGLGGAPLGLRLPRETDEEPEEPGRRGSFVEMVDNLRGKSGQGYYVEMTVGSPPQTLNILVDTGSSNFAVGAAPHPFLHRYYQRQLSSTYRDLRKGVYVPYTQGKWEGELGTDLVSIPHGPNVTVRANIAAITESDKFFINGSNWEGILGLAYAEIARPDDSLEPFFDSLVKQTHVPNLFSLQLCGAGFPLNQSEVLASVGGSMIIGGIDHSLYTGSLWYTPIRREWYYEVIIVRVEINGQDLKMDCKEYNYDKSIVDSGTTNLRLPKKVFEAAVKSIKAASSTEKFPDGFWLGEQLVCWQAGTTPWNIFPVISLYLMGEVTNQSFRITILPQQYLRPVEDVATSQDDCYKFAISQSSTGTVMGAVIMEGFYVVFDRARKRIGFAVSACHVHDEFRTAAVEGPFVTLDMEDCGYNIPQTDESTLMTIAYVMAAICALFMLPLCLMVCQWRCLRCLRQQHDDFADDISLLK

Beta-secretase 1 [2] = target: T3, Beta-secretase 1; remark: listed apart in the source
[3] = target: T4, Beta-secretase 2 (Homo sapiens) (UniProt Q9Y5Z0); test: as §1
T4 sequence (whole entry): T1 sequence (Q9Y5Z0 whole entry)

| pIC50 (Beta-secretase 2) | pIC50 (Renin) | pIC50 (Beta-secretase 1 [1]) | pIC50 (Beta-secretase 1 [2]) | Activity [3] | Structure (SMILES) |
| --- | --- | --- | --- | --- | --- |
| 6.68 | < 4.30 | 5.93 | 7.20 |  | C[C@@H](NC(=O)c1cc(NS(C)(=O)=O)cc(C(=O)N[C@@H](Cc2ccccc2)C(O)CNC2CC2)c1)c1ccc(F)cc1 (some centres undefined) |
|  | < 4.30 |  |  |  | C[C@@H](NC(=O)c1cc(C(=O)N[C@@H](Cc2ccccc2)C(O)CNC2CC2)cc(N(C)S(C)(=O)=O)c1)c1ccccc1 (some centres undefined) |
| 6.35 | < 4.30 | 5.27 | 7.64 |  | C[C@@H](NC(=O)c1cc(C(=O)N[C@@H](Cc2ccccc2)[C@H](O)CN)cc(N(C)S(C)(=O)=O)c1)c1ccc(F)cc1 |
|  | < 4.30 | 5.67 | 7.82 | inactive | C[C@@H](NC(=O)c1cc(C(=O)N[C@@H](Cc2ccccc2)[C@H](O)CNC(C)(C)C)cc(N(C)S(C)(=O)=O)c1)c1ccc(F)cc1 |
| 7.16 | < 5.00 | 7.72 | 8.00 |  | C[C@@H](NC(=O)c1cc(C(=O)N[C@@H](Cc2ccccc2)[C@H](O)CNC2CC2)cc(N(C)S(C)(=O)=O)c1)c1ccc(F)cc1 |
| 6.96 | < 4.30 | 8.05 | 7.85 |  | C[C@@H](NC(=O)c1cc(C(=O)N[C@@H](Cc2ccccc2)[C@H](O)CNC2CC2)cc(N(C)S(=O)(=O)N(C)C)c1)c1ccccc1 |
| 6.44 | < 4.30 | 7.60 | 7.39 |  | CC(C)S(=O)(=O)N(C)c1cc(C(=O)N[C@@H](Cc2ccccc2)[C@H](O)CNC2CC2)cc(C(=O)N[C@H](C)c2ccccc2)c1 |

| Structure (SMILES) | pIC50 (Beta-secretase 2) | pIC50 (Renin) | pIC50 (Beta-secretase 1 [1]) | pIC50 (Beta-secretase 1 [2]) | Activity [3] |
| --- | --- | --- | --- | --- | --- |
| CCNC[C@@H](O)[C@H](Cc1ccccc1)NC(=O)c1cc(C(=O)N[C@H](C)c2ccc(F)cc2)cc(N(C)S(C)(=O)=O)c1 | 6.59 | < 4.30 | 6.40 | 7.82 |  |
